# Source: patent US6653478B2, “Substituted benzimidazol-2-ones as vasopressin receptor antagonists and neuropeptide Y modulators” (Ortho-McNeil Pharmaceutical, Inc., priority 2000, dated 2003)
# Where “and” joins values, the source holds several entries; their conditions need not be identical. Identical values can stand only once. Counter-ions that a name gives are not always drawn.
# Legend:
# [1] = target: T1, human V1a receptor (Homo sapiens, UniProt P37288); test: V1a functional assay, intracellular calcium mobilization in transfected HEK-293 cells (FLIPR); set-up: expressed in transfected cells; host or cells: HEK-293; conditions: challenge 1 nM AVP; read-out: Cell-Based Functional activity V1a IC50
# Experimental: (§1) V1a, V1b or V2 Functional Assay
# (§2) HEK-293 cells were grown in DMEM media supplemented with 10% FBS and glutamine (Gibco BRL, Grand Island, N.Y.). Once transfected the cells were passed biweekly by trypsinization and seeded into 96 well plates at 33,000 cells per well. HEK-293 were transfected with human V1a, V1b or V2 DNA using DMRIE-C reagent from Life Technologies, Inc., Grand Island, N.Y. Cells were tested for their responsiveness to vasopressin 48 hours after transfection. Stable lines were generated by selecting cells grown in culture media containing geneticin (500 μg/ml, Life Technologies).
# (§3) Intracellular calcium mobilization was measured in HEK-293 cells transfected to express either human V1a, oxytocin or V1b receptors. Cells were plated into black 96-well Packard Clear-View plates 4 to 7 days prior to use. The cells were loaded with fluo-3 AM (Molecular Probes, Inc., Eugene, Oreg.) in buffer (25 mM Hepes, 125 mM NaCl, 1 gm/l glucose, 0.1% BSA, 5 mM KCl, 0.5 mM CaCl2, 0.5 mM MgCl2, pH 7.45) containing Pluronic (Molecular Probes) Cells were incubated with 5 μM fluo-3 AM for 1 hour shielded from light at room temperature. Intracellular fluorescence was measured using FLIPR (fluorometric imaging plate reader; Molecular Devices, Inc., Sunnyvale, Calif.). The FLIPR protocol called for images to be collected at one second intervals with 50 μl of the test compound added after the initial 10 images. An additional 70 images were then taken to detect any compound agonistic activity. FLIPR then added 50 μl of agonist peptide and collected a final 40 images for quantitating compound antagonistic activity. V1a- and V1b-expressing HEK cells were challenged with 1 nM and 0.5 nM AVP, respectively. Oxytocin-expressing HEK cells were challenged with 0.5 nM oxytocin (Peninsula Labs).
# (§4) The data from the cAMP accumulation and the calcium mobilization assays are expressed as IC50 values as determined from dose response curves.
# [2] = target: T1, human V1a receptor; test: V1a binding assay (3H-AVP displacement, HEK-293 membranes); set-up: expressed in transfected cells; host or cells: HEK-293 (membranes); conditions: for inhibition at 1 µM: read-out: V1a@1.0, % Inh
# In short: (§5)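 Tracer 3H-AVP, 10,000 cpm/well; buffer 50 mM Tris/5 mM MgCl2/0.1% BSA pH 7.5 + Pefabloc, aprotinin, leupeptin, pepstatin A, bacitracin; NSB 1.25 μM AVP; 1 h RT; GF/C filtration (0.3% PEI); scintillation count with quench correction.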
# [3] = target: T2, NPY2 receptors (Homo sapiens, UniProt P49146); test: Neuropeptide Y receptor binding assay (125I-PYY, KAN-TS cell membranes); conditions: 10 μM compound; for inhibition at 10 µM: read-out: NPY-2@10, % Inh
# T2 construct: Cell Membranes from KAN-TS cells having NPY2 receptors; endogenous in cells; host or cells: KAN-TS cells (membranes)
# T2 sequence (P49146 1-381): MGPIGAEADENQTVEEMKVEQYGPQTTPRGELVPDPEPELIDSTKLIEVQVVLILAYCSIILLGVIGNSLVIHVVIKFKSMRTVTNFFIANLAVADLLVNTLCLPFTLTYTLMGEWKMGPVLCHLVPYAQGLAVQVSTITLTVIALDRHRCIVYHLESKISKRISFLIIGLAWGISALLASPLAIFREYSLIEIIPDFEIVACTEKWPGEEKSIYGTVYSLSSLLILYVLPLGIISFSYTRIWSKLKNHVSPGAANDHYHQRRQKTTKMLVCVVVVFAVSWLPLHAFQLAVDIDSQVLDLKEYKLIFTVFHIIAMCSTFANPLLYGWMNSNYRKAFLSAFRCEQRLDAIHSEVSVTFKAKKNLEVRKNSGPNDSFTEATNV
# In short: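 Membranes from KAN-TS cells competed with 125I-PYY in binding buffer containing BSA, test compound at 10 μM final, 1 hr at room temperature. Nonspecific binding defined with 1 μM PYY final. Tubes centrifuged, washed with PBS and bound radioactivity gamma-counted.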
# [4] = target: T3, human V1b receptor (Homo sapiens, UniProt P47901); test: V1b binding assay (3H-AVP displacement, HEK-293 membranes); set-up: expressed in transfected cells; host or cells: HEK-293 (membranes); conditions: for inhibition at 10 µM: read-out: V1b % Inh @10; for inhibition at 1 µM: 1.0 μM compound, read-out: V1b@1.0, % Inh
# T3 sequence (P47901 1-424): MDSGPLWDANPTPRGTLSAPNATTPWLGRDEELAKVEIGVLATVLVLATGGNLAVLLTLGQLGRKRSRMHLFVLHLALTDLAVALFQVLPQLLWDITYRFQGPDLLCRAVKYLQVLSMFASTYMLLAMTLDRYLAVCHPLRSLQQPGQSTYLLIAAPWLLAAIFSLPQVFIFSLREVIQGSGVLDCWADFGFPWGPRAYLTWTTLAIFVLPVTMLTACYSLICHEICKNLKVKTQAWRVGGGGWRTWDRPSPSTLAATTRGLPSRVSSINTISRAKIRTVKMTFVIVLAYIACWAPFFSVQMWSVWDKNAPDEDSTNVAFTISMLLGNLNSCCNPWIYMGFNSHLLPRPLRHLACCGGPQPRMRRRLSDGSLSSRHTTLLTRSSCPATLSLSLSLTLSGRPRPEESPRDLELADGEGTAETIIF
# In short: as §5
# [5] = target: human V2 receptor (Homo sapiens, UniProt P30518); test: V2 binding assay (3H-AVP displacement, HEK-293 membranes); set-up: expressed in transfected cells; host or cells: HEK-293 (membranes); conditions: for inhibition at 1 µM: read-out: V2@1.0, % Inh
# In short: as §5
# [6] = target: T3, human V1b receptor; test: V1b functional assay, intracellular calcium mobilization in transfected HEK-293 cells (FLIPR); assay type: cell-based; set-up: expressed in transfected cells; host or cells: HEK-293; conditions: for IC50: challenge 0.5 nM AVP, read-out: Cell-Based Functional activity V1b IC50
# Experimental: as §1, §2, §3, §4
# T1 sequence (P37288 whole entry): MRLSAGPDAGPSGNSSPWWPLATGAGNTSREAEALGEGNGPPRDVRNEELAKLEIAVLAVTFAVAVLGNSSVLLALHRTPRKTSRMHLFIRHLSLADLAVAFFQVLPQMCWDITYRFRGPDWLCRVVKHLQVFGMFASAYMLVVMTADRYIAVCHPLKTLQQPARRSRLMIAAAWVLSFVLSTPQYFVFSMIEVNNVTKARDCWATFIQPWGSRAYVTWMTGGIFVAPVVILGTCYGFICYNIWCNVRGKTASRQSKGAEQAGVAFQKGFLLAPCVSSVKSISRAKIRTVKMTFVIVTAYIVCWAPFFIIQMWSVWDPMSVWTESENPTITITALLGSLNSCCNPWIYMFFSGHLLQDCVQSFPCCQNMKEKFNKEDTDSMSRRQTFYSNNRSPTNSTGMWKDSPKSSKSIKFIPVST
# human V2 receptor, sequence (P30518 whole entry): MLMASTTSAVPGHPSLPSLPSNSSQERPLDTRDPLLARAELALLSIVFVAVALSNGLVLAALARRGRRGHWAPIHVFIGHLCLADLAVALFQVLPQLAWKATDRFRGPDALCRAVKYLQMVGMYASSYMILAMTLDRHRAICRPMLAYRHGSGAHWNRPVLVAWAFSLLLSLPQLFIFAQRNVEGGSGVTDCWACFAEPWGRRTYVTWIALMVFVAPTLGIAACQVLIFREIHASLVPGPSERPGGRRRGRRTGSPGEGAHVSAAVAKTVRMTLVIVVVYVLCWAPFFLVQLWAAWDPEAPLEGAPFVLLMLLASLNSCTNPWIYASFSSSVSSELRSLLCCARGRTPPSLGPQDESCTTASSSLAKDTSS
IC50 [2],inhibition at 10 µM [3] [%],inhibition at 10 µM ([4]; 10 μM compound) [%],inhibition at 1 µM ([5]; 1.0 μM compound) [%],inhibition at 1 µM ([2]; 1.0 μM compound) [%],SMILES,further results
200 nM,50,35,0,,"NCCCn1c(=O)n(C2CCN(C(=O)Nc3ccccc3-c3ccccc3)CC2)c2ccccc21 [Compound 62, 1-[(N1-Piperidinocarboyl-2-biphenylylamino)-4-yl]-3-(3-aminopropyl)-1,3-dihydro-benzimidazol-2-one hydrochloride]","IC50 [1]: 690 nM; inhibition at 30 µM ([6]; HEK293, 30 μM compound, read-out: Cell-Based Functional activity V1b % Inh. @ 30): 0%"
50 nM,94,74,42,,"NCCn1c(=O)n(C2CCN(C(=S)NC(c3ccccc3)c3ccccc3)CC2)c2ccccc21 [Compound 63, 1-[(N1-Piperidinocarbothioyldiphenylmethylamino)-4-yl]-3-(2-aminoethyl)-1,3-dihydrobenzimidazol-2-one Hydrochloride]",IC50 [1]: 310 nM; IC50 [4]: 4700 nM; IC50 [6]: 8060 nM
77 nM,51,51,,,"NCCCCn1c(=O)n(C2CCN(C(=S)NC(c3ccccc3)c3ccc(Cl)cc3)CC2)c2ccccc21 (stereo not drawn) [Compound 65, 1-[(N1-Piperidinocarbothioyl-4-chlorodiphenylmethylamino)-4-yl]-3-(4-aminobutyl)-1,3-dihydro-benzimidazol-2-one]",IC50 [1]: 460 nM; IC50 [5]: 500 nM; IC50 [6]: 21000 nM
250 nM,41,25,0,,"CC(=O)NCCCn1c(=O)n(C2CCN(C(=S)NC(c3ccccc3)c3ccccc3)CC2)c2ccccc21 [Compound 76, 1-[(N1-Piperidinocarbothioyldiphenylmethylamino)-4-yl]-3-(3-acetamidopropyl)-1,3-dihydrobenzimidazol-2-one]",
62 nM,13,,5,,"CCN(CC)CCn1c(=O)n(C2CCN(C(=S)NCc3ccccc3-c3ccccc3)CC2)c2ccccc21 [Compound 90, 1-(N1-Piperidinocarbothioyl-(2-phenylbenzylamino)-4-yl)-3-(2-diethyaminoethyl)benzimidazol-2-one]",inhibition at 1 µM [4]: 27%
,7,0,9,25,O=c1[nH]c2ccccc2n1C1CCN(C(=S)NCCCc2ccccc2)CC1 [Compound 38],
,12,18,0,63,O=C(Nc1ccccc1-c1ccccc1)N1CCC(n2c(=O)[nH]c3ccccc32)CC1 [Compound 49],
109 nM and 56 nM,31,,0,,"COc1ccccc1CNC(=S)N1CCC(n2c(=O)n(CCCN3CCCCC3)c3ccccc32)CC1 [Compound 111, 1-[(N1-piperidinocarbothioyl-2-methoxybenzylamino)-4-yl]-3-(3-N-piperidinylpropyl)-1,3-dihydrobenzimidazol-2-one]",inhibition at 1 µM [4]: 30%
,2,19,1,25,COC(=O)[C@@H](Cc1ccccc1)NC(=S)N1CCC(n2c(=O)[nH]c3ccccc32)CC1 [Compound 51],
,17,5,15,19,O=c1[nH]c2ccccc2n1C1CCN(C(=S)NCCc2ccc([N+](=O)[O-])cc2)CC1 [Compound 31],
79 nM,20,,0,,"O=C(NC(c1ccccc1)c1ccccc1)N1CCC(n2c(=O)n(CCCN3CCCC3)c3ccccc32)CC1 [Compound 96, 1-[(N1-piperidinocarbonyldiphenylmethylamino)-4-yl]-3-(3-N-pyrrolidinylpropyl)-1,3-dihydrobenzimidazol-2-one]",inhibition at 1 µM [4]: 43%
,18,0,1,0,COc1ccccc1CNC(=S)N1CCC(n2c(=O)[nH]c3ccccc32)CC1 [Compound 14],
,13,0,0,0,"O=c1[nH]c2ccccc2n1C1CCN(C(=S)NC(c2ccccc2)(c2ccccc2)c2ccccc2)CC1 [Compound 25, 1-[(N1-Piperidinocarbothioyltriphenylmethylamino)-4-yl]-1,3-dihydro-benzimidazol-2-one]",
20 nM,81,,8,,"CCN(CC)CCCn1c(=O)n(C2CCN(C(=S)NC(c3ccccc3)c3ccccc3)CC2)c2ccccc21 [Compound 85, 1-[(N1-piperidinocarbothioylbiphenylmethylamino)-4-yl]-3-(3-N,N-diethylaminopropyl)-1,3-dihydrobenzimidazol-2-one]",IC50 [4]: 230 nM
,,,,,"COc1ccccc1NC(=S)N1CCC(n2c(=O)[nH]c3ccccc32)CC1 [Compound 4, 1-[N1-Piperidinocarbothioyl-(2-methoxyphenyl)amino-4-yl]-1,3-dihydro-benzimidazol-2-one]","V1a@1.0, % Inh ([2]; 1.0 μM compound): 0%; NPY-2@10, % Inh [3]: 6%; V1b % Inh @10 ([4]; 10 μM compound): 0%@10; V2@1.0, % Inh ([5]; 1.0 μM compound): 0%"
,15,0,20,33,CC(NC(=S)N1CCC(n2c(=O)[nH]c3ccccc32)CC1)c1ccc(F)cc1 (stereo not drawn) [Compound 27],
24 nM,93,,,,"NCCCCn1c(=O)n(C2CCN(C(=S)NC(c3ccccc3)c3ccccc3)CC2)c2ccccc21 [Compound 64, 1-[(N1-Piperidinocarbothioyldiphenylmethylamino)-4-yl]-3-(4-aminobutyl)-1,3-dihydro-benzimidazol-2-one]",IC50 [1]: 140 nM; IC50 [4]: 5400 nM; IC50 [5]: 560 nM; IC50 [6]: 12100 nM
3100 nM,26,0,3,,O=c1[nH]c2ccccc2n1C1CCN(C(=S)NCc2ccccc2)CC1 [Compound 11],
